{"source": "patent US6531464B1", "about": "“Methods for the treatment of neurodegenerative disorders using substituted phenanthridinone derivatives” (Inotek Pharmaceutical Corporation, priority 1999, dated 2003)", "key": {"[1]": {"tested_on": "thoracic aortic rings from wild-type mice", "assay": "High glucose induced endothelial dysfunction in isolated thoracic aortic rings", "parameters": "species or system mouse", "conditions": "30 mM glucose 16 hours; co-incubation with PJ34 1 μM", "description": "Breeding pairs of mice for the PARS colony were a gift from Dr. Z. Q. Wang, International Agency for Research on Cancer Lyon, France. Thoracic aortae from PARS^−/− and PARS^+/+ mice (Wang et al., Genes Dev.9: 509-520, 1995) were harvested, cleared of periadvential fat, and cut into 3 or 4 pieces. […] Four different media preparations were used: a) normal glucose, i.e. 5 mM: in F-12K Nutrient Mixture medium (Gibco BRL—Life Technologies); b) Osmotic control, i.e. 30 mM L-glucose in F-12K medium; c) High glucose i.e. 30 mM D-glucose in F-12K medium; […].\nAfter incubation, aortic rings were mounted in organ baths filled with warmed and gas equilibrated Krebs' solution and endothelium dependent relaxant ability was evaluated as described above."}, "mouse": {"tested_on": "mouse", "assay": "Ischemic and reperfused gut (superior mesenteric artery occlusion)", "conditions": "gut ischemia-reperfusion; 38% mortality without treatment", "source_text": "In another model, a mouse model of ischemic and reperfused gut was utilized."}, "MIP-1α": {"tested_on": "MIP-1α", "assay": "LPS-stimulated J774 macrophages: MIP-1α production", "assay_type": "cell-based", "excerpt": "(§1) In in vitro studies, J774 macrophages were exposed to bacterial lipopolysaccharide (LPS), to induce pro-inflammatory mediator production and cytotoxicity. […] This assay (the LPS-stimulated macrophage) represents an in vitro model of an inflammatory situation. Agents that block inflammatory mediator production in this assay are expected to have anti-inflammatory or immunosuppressive effects in inflammatory or immune diseases.\n(§2) The half-maximal inhibitory effect (in μM) of various PJ compounds was assessed under a variety of conditions in immunostimulated J774 macrophages and in peroxynitrite-stimulated thymocytes. Macrophages or thymocytes were first treated with a chosen PJ compound for 30 min at a concentration ranging from 0.1 to 30 μM. The cells were then immunostimulated with LPS (10 μg/ml) or treated with peroxynitrite (30 μM). MIP production in the macrophages was measured at 3 h, TNF and nitric oxide were measured at 24 h, cell viability in the macrophages were measured at 24 h. PARS activation and cell death in thymocytes were measured at 6 h. Measurements of mediator production, PARS activation and cell death were essentially as described in Németh, et al., Eur J Pharmacol 339:215-221, 1997 and Virág and Szabó, Br J Pharmacol, 126: 769-777, 1999. Results in Table 2 are shown as EC50 values (half maximal inhibition of mediator production or restoration of cell viability; in μM): [mean±SEM of n=3-6 determinations]."}, "thymocytes": {"tested_on": "thymocytes", "assay": "Peroxynitrite-stimulated thymocytes: cell viability", "assay_type": "cell-based", "description": "as §2"}, "anesthetized rat": {"tested_on": "anesthetized rat", "assay": "Coronary artery ligation and release (myocardial reperfusion injury) in anesthetized rat", "assay_type": "in vivo", "parameters": "dose or concentration left out as unconfirmed", "conditions": "1-hour coronary ischemia, 1 hour reperfusion, i.v. 10 min prior to reperfusion"}, "Lewis rats": {"tested_on": "Lewis rats", "assay": "Heterotopic heart transplantation: coronary blood flow and myocardial performance", "assay_type": "in vivo, rat", "conditions": "3 mg/kg i.v."}, "cultured neurons": {"tested_on": "cultured neurons", "conditions": "oxygen/glucose deprivation; concentration range 10 nM-1 μM", "source_text": "A second experimental system was used where oxygen/glucose deprivation induced cell death in cultured neurons (i.e. an in vitro model of stroke)."}, "rat": {"tested_on": "rat", "assay": "Middle cerebral artery occlusion/reperfusion", "procedure": "Occlusion lasted for 2 hours, followed by reperfusion for 24 hours. Infarct size was quantified with tetrazolium staining, and survival and neurological scores were monitored."}, "nitric oxide (nitrite)": {"tested_on": "nitric oxide (nitrite)", "assay": "LPS-stimulated J774 macrophages: nitric oxide production measured as nitrite", "assay_type": "cell-based", "excerpt": "as §1, §2"}, "TNF-α": {"tested_on": "TNF-α", "assay": "LPS-stimulated J774 macrophages: TNF-α production", "assay_type": "cell-based", "excerpt": "as §1, §2"}, "J774 macrophages": {"tested_on": "J774 macrophages", "assay": "LPS-stimulated J774 macrophages: cell viability", "assay_type": "cell-based", "excerpt": "as §1, §2"}, "Balb/c mice": {"tested_on": "Balb/c mice", "assay": "LPS-induced mortality (systemic inflammatory model)", "conditions": "LPS 90 mg/kg intraperitoneally; pretreatment 20 mg/kg; over 24 h; 92% death without treatment", "procedure": "In order to substantiate the efficacy of the PJ series of compounds in inflammatory conditions, the effect of compounds according to the invention were tested in a systemic inflammatory model induced by bacterial lipopolysaccharide."}, "SJL/PLJ mice": {"tested_on": "SJL/PLJ mice", "assay": "Experimental allergic encephalomyelitis (EAE) induced by MBP immunization", "assay_type": "in vivo, mouse", "description": "The studies were performed according to standard methods. See, e.g., Hooper et al., Proc Natl Acad Sci U S A 95:675-680, 1998. Briefly, EAE was caused by immunization of 8-10 week old female SJL/PLJ mice with MBP (in complete Freund's adjuvant containing 0.05% M Butyricum plus an additional 4 mg/ml Mycobacterium Tuberculosis H37 RA, one […] subcutaneous dose plus 2 doses of 400 ng pertussis toxin, intra-peritoneal, on days 0 and 2). The grading system shown in Table 5 was used to evaluate the severity of the disease."}, "[2]": {"conditions": "J774 macrophages exposed to LPS"}, "[3]": {"conditions": "10 mg/kg orally 2 times daily from day 10"}}, "data": [{"compound": "CN(C)CC(=O)Nc1ccc2[nH]c(=O)c3ccccc3c2c1", "note": "[PJ34, N-(6-oxo-5,6-dihydro-phenanthridin-2-yl)-N,N-dimethylacetamide]", "values": [{"measurement": "impairment in endothelium-dependent relaxation by high glucose", "setting": "[1]", "result": "prevented"}, {"measurement": "survival", "setting": "mouse", "result": 100, "unit": "%"}, {"measurement": "production of the chemokine MIP-1α (in words)", "setting": "MIP-1α; [2]", "result": "inhibited"}, {"measurement": "EC50", "setting": "MIP-1α; Mus musculus, J774, LPS 10 μg/ml, 30 min pretreatment 0.1 to 30 μM, measured at 3 h, mean±SEM n=3-6, read-out: Inhibition of MIP-1α (J774)", "result": "10.2 ± 1.4", "unit": "µM"}, {"measurement": "EC50", "setting": "thymocytes; Thymocyte, peroxynitrite 30 μM, 30 min pretreatment 0.1 to 30 μM, measured at 6 h, mean±SEM n=3-6, read-out: Enhancement of cell viability (thymocyte)", "result": "0.2 ± 0.1", "unit": "µM"}, {"measurement": "oxidant-induced suppression of the viability of the cells (in words)", "setting": "thymocytes; isolated thymocytes exposed to peroxynitrite or hydrogen peroxide", "result": "prevented"}, {"measurement": "reduction of plasma levels of creatine phosphokinase (CPK)", "setting": "anesthetized rat", "result": "approx. 50%"}, {"measurement": "myocardial infarct size (area of necrosis, over area of risk)", "setting": "anesthetized rat; 62±1 without treatment", "result": "50±3", "unit": "%"}, {"measurement": "myocardial performance (in words)", "setting": "Lewis rats; data not shown", "result": "markedly enhanced"}, {"measurement": "Basal coronary bloodflow", "setting": "Lewis rats; 1 h after transplant, vehicle 2.8 ± 0.3", "result": "4.1 ± 0.4", "unit": "mL/min"}, {"measurement": "Acetylcholine stimulated coronary bloodflow", "setting": "Lewis rats; 1 h after transplant, vehicle 3.5 ± 0.3", "result": "6.5 ± 0.5", "unit": "mL/min"}, {"measurement": "Basal coronary bloodflow", "setting": "Lewis rats; 24 h after transplant, vehicle 3.9 ± 0.3", "result": "4.2 ± 0.2", "unit": "mL/min"}, {"measurement": "Acetylcholine stimulated coronary bloodflow", "setting": "Lewis rats; 24 h after transplant, vehicle 6.1 ± 0.4", "result": "8.2 ± 0.8", "unit": "mL/min"}, {"measurement": "cytoprotection", "setting": "cultured neurons", "result": "up to 70%"}, {"measurement": "reduction of the size of brain infarction", "setting": "rat; 10 mg/kg i.v. at 2 h after the start of reperfusion", "result": "55±8", "unit": "%"}, {"measurement": "reduction of the size of brain infarction", "setting": "rat; 10 mg/kg i.v. at the time of reperfusion (5 min before start)", "result": "74±6", "unit": "%"}, {"measurement": "mortality over 24 hours (in words)", "setting": "rat; 2 hours occlusion, 24 hours reperfusion, 10 mg/kg i.v., 73% mortality in control or vehicle", "result": "no animals died"}, {"measurement": "neurological deficit (scale of 1-4)", "setting": "rat; 24 h, vehicle survivors scored 4", "result": "no detectable deficit"}, {"measurement": "production of nitric oxide, measured as nitrite (in words)", "setting": "nitric oxide (nitrite); [2]", "result": "inhibited"}, {"measurement": "EC50", "setting": "nitric oxide (nitrite); Mus musculus, J774, LPS 10 μg/ml, 30 min pretreatment 0.1 to 30 μM, measured at 24 h, mean±SEM n=3-6, read-out: Inhibition of Nitrite (J774)", "result": "15.2 ± 2.8", "unit": "µM"}, {"measurement": "production of the pro-inflammatory cytokine TNF-α (in words)", "setting": "TNF-α; [2]", "result": "inhibited"}, {"measurement": "EC50", "setting": "TNF-α; Mus musculus, J774, LPS 10 μg/ml, 30 min pretreatment 0.1 to 30 μM, measured at 24 h, mean±SEM n=3-6, read-out: Inhibition of TNF-α (J774)", "result": "5.4 ± 0.6", "unit": "µM"}, {"measurement": "viability of the cells suppressed by LPS exposure (in words)", "setting": "J774 macrophages; [2]", "result": "restored the viability"}, {"measurement": "EC50", "setting": "J774 macrophages; Mus musculus, J774, LPS 10 μg/ml, 30 min pretreatment 0.1 to 30 μM, measured at 24 h, mean±SEM n=3-6, read-out: Enhancement of cell Viability (J774)", "result": "12.5 ± 1.4", "unit": "µM"}, {"measurement": "endotoxin-induced mortality", "setting": "Balb/c mice", "result": 50, "unit": "%"}, {"measurement": "mortality in EAE (in words)", "setting": "SJL/PLJ mice; [3]", "result": "significant reduction"}, {"measurement": "severity of EAE (in words)", "setting": "SJL/PLJ mice; [3]", "result": "significant reduction"}, {"measurement": "Percent mortality", "setting": "SJL/PLJ mice; Day 10 after immunization, 10 mg/kg orally 2 times daily from day 10", "result": 0, "unit": "%"}, {"measurement": "Average Disease severity index", "setting": "SJL/PLJ mice; Day 10 after immunization, 10 mg/kg orally 2 times daily from day 10, grading Table 5", "result": 0}, {"measurement": "Average Disease severity index", "setting": "SJL/PLJ mice; Day 11", "result": 0}, {"measurement": "Percent mortality", "setting": "SJL/PLJ mice; Day 11", "result": 0, "unit": "%"}, {"measurement": "Average Disease severity index", "setting": "SJL/PLJ mice; Day 12", "result": 0}, {"measurement": "Percent mortality", "setting": "SJL/PLJ mice; Day 12", "result": 0, "unit": "%"}, {"measurement": "Average Disease severity index", "setting": "SJL/PLJ mice; Day 13", "result": 0}, {"measurement": "Percent mortality", "setting": "SJL/PLJ mice; Day 13", "result": 0, "unit": "%"}, {"measurement": "Average Disease severity index", "setting": "SJL/PLJ mice; Day 14", "result": 0}, {"measurement": "Percent mortality", "setting": "SJL/PLJ mice; Day 14", "result": 0, "unit": "%"}, {"measurement": "Average Disease severity index", "setting": "SJL/PLJ mice; Day 15", "result": 0}, {"measurement": "Percent mortality", "setting": "SJL/PLJ mice; Day 15", "result": 0, "unit": "%"}, {"measurement": "Average Disease severity index", "setting": "SJL/PLJ mice; Day 16", "result": 4}, {"measurement": "Percent mortality", "setting": "SJL/PLJ mice; Day 16", "result": 0, "unit": "%"}, {"measurement": "Average Disease severity index", "setting": "SJL/PLJ mice; Day 17", "result": 4}, {"measurement": "Percent mortality", "setting": "SJL/PLJ mice; Day 17", "result": 0, "unit": "%"}, {"measurement": "Average Disease severity index", "setting": "SJL/PLJ mice; Day 18", "result": 4}, {"measurement": "Percent mortality", "setting": "SJL/PLJ mice; Day 18", "result": 0, "unit": "%"}, {"measurement": "Average Disease severity index", "setting": "SJL/PLJ mice; Day 19", "result": 4}, {"measurement": "Percent mortality", "setting": "SJL/PLJ mice; Day 19", "result": 0, "unit": "%"}, {"measurement": "Average Disease severity index", "setting": "SJL/PLJ mice; Day 20", "result": 3}, {"measurement": "Percent mortality", "setting": "SJL/PLJ mice; Day 20", "result": 0, "unit": "%"}]}]}
